Data reported in ChEMBL document CHEMBL5380808, “Design, Synthesis, and Biological Activity of Marinacarboline Analogues as STAT3 Pathway Inhibitors for Docetaxel-Resistant Triple-Negative Breast Cancer” (J Med Chem, 2023).
pIC50: −log10 of the molar value. Activity calls are given as the source filed them. The rule behind the calls is not given here.

Assays:
[1] = Induction of apoptosis in docetaxel-resistant human MDA-MB-231-DTR cells assessed as increase in total cell death at 10 uM incubated for 48 hrs by Annexin V-FITC and PI staining based flow cytometry; assay type: functional
[2] = target: Signal transducer and activator of transcription 3 (Homo sapiens) (UniProt P40763); assay: Inhibition of STAT3 phosphorylation at Y705 residue in human MDA-MB-231 cells assessed as decrease in phosphorylated STAT3 level at 5 uM incubated for 24 hrs by Western blot analysis; assay type: cell-based
Chain of Signal transducer and activator of transcription 3 (Homo sapiens) (P40763 whole entry): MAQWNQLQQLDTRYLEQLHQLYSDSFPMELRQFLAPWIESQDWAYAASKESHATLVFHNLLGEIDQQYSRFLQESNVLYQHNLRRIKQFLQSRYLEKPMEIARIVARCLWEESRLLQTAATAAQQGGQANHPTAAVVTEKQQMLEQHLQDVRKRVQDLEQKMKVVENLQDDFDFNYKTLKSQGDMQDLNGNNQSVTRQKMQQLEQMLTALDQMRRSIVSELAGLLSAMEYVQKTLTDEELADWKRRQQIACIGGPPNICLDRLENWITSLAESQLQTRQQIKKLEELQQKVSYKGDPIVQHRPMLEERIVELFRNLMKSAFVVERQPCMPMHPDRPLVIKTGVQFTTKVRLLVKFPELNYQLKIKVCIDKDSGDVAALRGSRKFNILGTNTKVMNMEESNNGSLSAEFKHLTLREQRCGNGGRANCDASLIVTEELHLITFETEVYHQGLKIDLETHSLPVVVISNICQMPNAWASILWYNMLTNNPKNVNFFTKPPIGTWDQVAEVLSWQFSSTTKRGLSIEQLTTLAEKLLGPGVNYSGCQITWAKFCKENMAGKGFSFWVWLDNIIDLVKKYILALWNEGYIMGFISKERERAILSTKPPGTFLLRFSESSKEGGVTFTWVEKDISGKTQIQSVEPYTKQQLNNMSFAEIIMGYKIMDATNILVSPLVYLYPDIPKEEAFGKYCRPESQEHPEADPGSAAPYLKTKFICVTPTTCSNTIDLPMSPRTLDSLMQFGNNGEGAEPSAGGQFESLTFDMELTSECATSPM

[3] = system: MDA-MB-231; assay: Induction of apoptosis in docetaxel-resistant human MDA-MB-231-DTR cells assessed as downregulation of survivin expression level at 2.5 to 10 uM incubated for 48 hrs by Western blot analysis; assay type: functional, cell-based; details: dose 2.5-10 µM
[4] = target: Signal transducer and activator of transcription 3 (Homo sapiens) (UniProt P40763); assay: Inhibition of STAT3 phosphorylation at Y705 residue in docetaxel-resistant human MDA-MB-231-DTR cells assessed as decrease in phosphorylated STAT3 level at 2.5 to 10 uM incubated for 24 hrs by Western blot analysis; assay type: cell-based; details: dose 2.5-10 µM
[5] = Induction of cell cycle arrest in docetaxel-resistant human MDA-MB-231-DTR cells assessed as accumulation at G0/G1 phase at 5 uM incubated for 48 hrs by PI staining based flow cytometry analysis (reference value: 75.49%); assay type: functional
[6] = Induction of cell cycle arrest in docetaxel-resistant human MDA-MB-231-DTR cells assessed as accumulation at G2/M phase at 5 uM incubated for 48 hrs by PI staining based flow cytometry analysis (reference value: 13.54%); assay type: functional
[7] = system: MDA-MB-231; assay: Antiproliferative activity against human MDA-MB-231 cells assessed as reduction in cell viability incubated for 72 hrs by MTT assay; assay type: functional, cell-based; details: MDA-MB-231, 72 h
[8] = system: MDA-MB-231; assay: Induction of apoptosis in docetaxel-resistant human MDA-MB-231-DTR cells assessed as upregulation of cleaved-caspase-3 expression level at 2.5 to 10 uM incubated for 48 hrs by Western blot analysis; assay type: functional, cell-based; details: dose 2.5-10 µM
[9] = Synergistic antiproliferative activity against docetaxel-resistant human MDA-MB-231-DTR cells assessed as combination index at 4 uM incubated for 72 hrs in presence of 2 uM of docetaxel by Chou-Talalay method; assay type: functional
[10] = Induction of cell cycle arrest in docetaxel-resistant human MDA-MB-231-DTR cells assessed as accumulation at S phase at 5 uM incubated for 12 hrs by PI staining based flow cytometry analysis (reference value: 10.56%); assay type: functional
[11] = system: MDA-MB-231; assay: Induction of cell cycle arrest at G2/M phase in docetaxel-resistant human MDA-MB-231-DTR cells assessed as upregulation of Chk1 phosphorylation at S345 at 2.5 to 10 uM incubated for 36 hrs by Western blot analysis; assay type: functional, cell-based; details: dose 2.5-10 µM
[12] = Induction of cell cycle arrest in docetaxel-resistant human MDA-MB-231-DTR cells assessed as accumulation at S phase at 5 uM incubated for 48 hrs by PI staining based flow cytometry analysis (reference value: 10.56%); assay type: functional
[13] = Induction of cell cycle arrest in docetaxel-resistant human MDA-MB-231-DTR cells assessed as accumulation at G2/M phase at 5 uM incubated for 36 hrs by PI staining based flow cytometry analysis (reference value: 13.54%); assay type: functional
[14] = system: MDA-MB-231; assay: Antitumor activity against docetaxel-resistant human MDA-MB-231-DTR cells xenografted in BALB/c mouse assessed as reduction in tumor volume at 10 mg/kg, ip daily for 12 days in presence of docetaxel; assay type: functional, organism-based; details: time 12.0 day
[15] = system: MDA-MB-231; assay: Antiproliferative activity against human MDA-MB-231 cells assessed as reduction in cell viability incubated for 72 hrs by sulforhodamine B assay; assay type: functional, cell-based; details: MDA-MB-231, 72 h
[16] = Induction of cell cycle arrest in docetaxel-resistant human MDA-MB-231-DTR cells assessed as accumulation at subG1 phase at 2.5 uM incubated for 36 hrs by PI staining based flow cytometry analysis (reference value: 0.52%); assay type: functional
[17] = Induction of cell cycle arrest in docetaxel-resistant human MDA-MB-231-DTR cells assessed as accumulation at G0/G1 phase at 5 uM incubated for 24 hrs by PI staining based flow cytometry analysis (reference value: 75.49%); assay type: functional
[18] = Induction of apoptosis in docetaxel-resistant human MDA-MB-231-DTR cells assessed as increase in total cell death at 2.5 uM incubated for 48 hrs by Annexin V-FITC and PI staining based flow cytometry; assay type: functional
[19] = system: MDA-MB-231; assay: Antitumor activity against docetaxel-resistant human MDA-MB-231-DTR cells xenografted in BALB/c mouse assessed as reduction in tumor weight at 10 mg/kg, ip daily for 12 days in presence of docetaxel; assay type: functional, organism-based; details: time 12.0 day
[20] = Antiproliferative activity against […] cells assessed as reduction in cell viability incubated for 72 hrs by MTT assay; assay type: functional, cell-based
[21] = Selectivity index, ratio of IC50 for cytotoxicity against human MRC5 cells to IC50 for antiproliferative activity against human MDA-MB-231 cells; assay type: toxicity, cell-based; details: MRC5 cells and MDA-MB-231 cells, read-out: Ratio IC50
[22] = system: MDA-MB-231; assay: Inhibition of cell migration in docetaxel-resistant human MDA-MB-231-DTR cells assessed as upregulation of E-cadherin expression level at 3 to 6 uM incubated for 24 hrs by Western blot analysis; assay type: functional, cell-based; details: dose 3-6 µM
[23] = system: MDA-MB-231; assay: Antitumor activity against docetaxel-resistant human MDA-MB-231-DTR cells xenografted in BALB/c mouse assessed as tumor growth inhibition at 10 mg/kg, ip daily for 12 days; assay type: functional, organism-based; details: time 12.0 day
[24] = Induction of cell cycle arrest in docetaxel-resistant human MDA-MB-231-DTR cells assessed as accumulation at G2/M phase at 2.5 uM incubated for 36 hrs by PI staining based flow cytometry analysis (reference value: 13.16%); assay type: functional
[25] = Synergistic antiproliferative activity against docetaxel-resistant human MDA-MB-231-DTR cells assessed as combination index at 2 uM incubated for 72 hrs in presence of 2 uM of docetaxel by Chou-Talalay method; assay type: functional
[26] = Synergistic antiproliferative activity against docetaxel-resistant human MDA-MB-231-DTR cells assessed as combination index at 2 uM incubated for 72 hrs in presence of 4 uM of docetaxel by Chou-Talalay method; assay type: functional
[27] = system: MDA-MB-231; assay: Antitumor activity against docetaxel-resistant human MDA-MB-231-DTR cells xenografted in BALB/c mouse assessed as downregulation of Ki67 level in tumor tissue at 10 mg/kg, ip daily for 12 days by Immunohistochemical analysis; assay type: functional, organism-based; details: time 12.0 day
[28] = Induction of cell cycle arrest in docetaxel-resistant human MDA-MB-231-DTR cells assessed as accumulation at G0/G1 phase at 5 uM incubated for 36 hrs by PI staining based flow cytometry analysis (reference value: 74.77%); assay type: functional
[29] = Induction of cell cycle arrest in docetaxel-resistant human MDA-MB-231-DTR cells assessed as accumulation at G0/G1 phase at 5 uM incubated for 12 hrs by PI staining based flow cytometry analysis (reference value: 75.49%); assay type: functional
[30] = Synergistic antiproliferative activity against docetaxel-resistant human MDA-MB-231-DTR cells assessed as combination index at 4 uM incubated for 72 hrs in presence of 4 uM of docetaxel by Chou-Talalay method; assay type: functional

Question: For O=C(NCCc1c[nH]c2ccccc12)c1cc2c([nH]c3ccccc32)c(C(=O)c2ccc(Br)cc2)n1, which Activity [1] is on record?
Answer: The Activity was 61.85%.

Question: And the inhibition [2]?
Answer: Its inhibition is “Active”.

Question: And the Activity [3]?
Answer: The Activity was “Active”.

Question: What about the inhibition [4] of the same compound?
Answer: Its inhibition is “Active”.

Question: What about the Activity [5] of the same compound?
Answer: The Activity was 48.08%.

Question: What about the Activity [6] of the same compound?
Answer: The Activity was 12.87%.

Question: What about the pIC50 [7] of the same compound?
Answer: Its pIC50 is 5.53.

Question: What about the Activity [8] of the same compound?
Answer: The Activity was “Active”.

Question: What about the CI [9] of the same compound?
Answer: Its CI is 0.53.

Question: What about the Activity [10] of the same compound?
Answer: Its Activity is 12.14%.

Question: What about the Activity [11] of the same compound?
Answer: The Activity was “Active”.

Question: What about the Activity [12] of the same compound?
Answer: Its Activity is 12.49%.

Question: And the Activity [13]?
Answer: The Activity was 26.59%.

Question: And the Activity [14]?
Answer: Its Activity is “Active”.

Question: What about the pIC50 [15] of the same compound?
Answer: Its pIC50 is 5.51.

Question: What about the Activity [16] of the same compound?
Answer: The Activity was 0.57%.

Question: And the Activity [17]?
Answer: The Activity was 82.18%.

Question: What about the Activity [18] of the same compound?
Answer: The Activity was 5.55%.

Question: What about the Activity [19] of the same compound?
Answer: Its Activity is “Active”.

Question: And the pIC50 [20]?
Answer: Its pIC50 is 5.49.

Question: What about the selectivity ratio [21] of the same compound?
Answer: Its selectivity ratio is 10.7.

Question: What about the inhibition [22] of the same compound?
Answer: The inhibition was “Active”.

Question: And the Activity [23]?
Answer: Its Activity is “Active”.

Question: And the Activity [24]?
Answer: The Activity was 25.18%.

Question: And the CI [25]?
Answer: Its CI is 0.23.

Question: What about the CI [26] of the same compound?
Answer: Its CI is 0.32.

Question: And the Activity [27]?
Answer: Its Activity is “Active”.

Question: And the Activity [28]?
Answer: The Activity was 51.37%.

Question: And the Activity [29]?
Answer: The Activity was 88.84%.

Question: What about the CI [30] of the same compound?
Answer: Its CI is 0.37.
